In patent publication US20140155420A1, “INHIBITORS OF EYA2” (The Regents of the University of Colorado, a body corporate, priority 2011, published 2014):
“Also recorded” adds a separate entry of the source. One block for each compound: values may come before it.

Experiments:
Eya2 ED = target: T1, Eya2 ED (Homo sapiens, UniProt O00167); conditions: no extra Mg2+ added
T1 sequence (O00167 253-538): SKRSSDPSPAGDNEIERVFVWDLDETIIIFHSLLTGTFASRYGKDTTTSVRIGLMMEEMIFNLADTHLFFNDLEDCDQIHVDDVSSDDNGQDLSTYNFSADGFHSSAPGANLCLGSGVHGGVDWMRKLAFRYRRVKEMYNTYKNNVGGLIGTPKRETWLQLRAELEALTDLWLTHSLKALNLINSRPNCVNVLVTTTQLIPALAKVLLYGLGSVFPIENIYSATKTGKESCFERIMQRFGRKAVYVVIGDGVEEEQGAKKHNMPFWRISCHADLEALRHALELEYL

[1] = UV-Vis spectra with Mg2+ titration; type: physicochemical; conditions: acetonitrile; for λmax without Mg2+ / λmax with Mg2+: 25 μM compound; for λmax without Mg2+: 0 mM Mg2+
Experimental: Compounds were dissolved in acetonitrile at a final concentration of 25 μM with final Mg^2+ concentration at 0, 0.5, 1, 5, 10, 25, 50, 100 and 200 mM. UV-visible spectra were obtained using an Agilent 8453 UV-Visible Spectrophotometer (Agilent Technologies) in 0.1 cm quartz cuvette at room temperature.
In order to elicit any possible weak association to Mg^2+, the inventors moved on to the organic solvent acetonitrile (Hojo et al., 2002). […] The solutions were prepared such that the absorbance was within the 0-1 range.

[2] = system: Six1/Eya2-mediated transcription; assay: MEF3-promoter luciferase assay in MCF7 cells; type: cell-based; conditions: compound incubated 48 hours
Experimental: MCF7 cells were plated in 24-well plates at 25,000 cells/well. 24 hours later, cells were transfected with 300 ng/well pGL3-6xMEF3 (a promoter-luciferase construct in which the promoter contains 6 well characterized Six1 MEF3 binding sites (Spitz et al., 1998)), 70 ng/well renilla luciferase, 100 ng/well pcDNA3.1 Six1, and 200 ng/well of pcDNA3.1-FLAG-Eya2 using FuGENE 6 (Roche Applied Science) transfection reagent. The following day the media was changed and 24 hours later lysates were prepared and analyzed with the Dual Luciferase Kit (Promega) on a Modulus Microplate (Turner Biosystems). An Eya2 phosphatase-dead mutant (D274N) was also used in place of wild type Eya2 to evaluate the effect of Eya2's phosphatase activity on transcription. To assay the effect of Eya2 phosphatase inhibitors on transcriptional activity, compound was added 24 hours after transfection and incubated for 48 hours before lysates were prepared and analyzed for luciferase activity as described above. All results were normalized to renilla activity to account for transfection efficiency and transcriptional activity was normalized to Eya2 protein expression in the Eya2 D274N rescue experiment. The inhibitory effect of the compounds was normalized to vehicle-treated control and statistical significance was determined by performing a one-way ANOVA with Dunnett's post-test on the natural log transformed normalized transcriptional activity.

[3] = UV-Vis spectra with Na+ titration; type: physicochemical; conditions: acetonitrile
Experimental: In order to elicit any possible weak association to Mg^2+, the inventors moved on to the organic solvent acetonitrile (Hojo et al., 2002). […] The solutions were prepared such that the absorbance was within the 0-1 range. They observed a dose-dependent shift in the maximum absorbance wavelength (λmax), from 322 nm (0 mM Mg^2+) to 334 nm (100 mM Mg^2+) (FIGS. 11B, 11C). The inventors conducted a similar study with Na where the compound concentration was kept at 12.5 μM and the sodium perchlorate concentration ranged from 0 to 25 mM.

Effect on ED melting temperature (Tm) (Eya2 ED): reduces Tm
Compound: O=C(O)CN(CCN(CC(=O)O)CC(=O)O)CC(=O)O [EDTA]

Intrinsic affinity for Mg2+ [1]: very weak intrinsic affinity | λmax without Mg2+ [1]: 322 nm | λmax with Mg2+ ([1]; 100 mM Mg2+): 334 nm | λmax when titrated with Na+ [3]: 323 nm
Compound: O=C(N/N=C/c1ccc(Sc2ccccn2)o1)c1cccc(F)c1 [MLS000544460]
Effect on Six1/Eya2-mediated transcription from the MEF3-luciferase reporter [2]: inhibit | Effect on Six1/Eya2-mediated transcription from the MEF3-luciferase reporter ([2]; listed as MLS00044460): diminish

λmax without Mg2+ [1]: 316 nm | λmax with Mg2+ ([1]; 50 mM Mg2+): 327 nm
Compound: Cc1ccccc1C(=O)N/N=C/c1ccc(Sc2ccccn2)o1 [MLS000585814]
Effect on Six1/Eya2-mediated transcription from the MEF3-luciferase reporter [2]: diminish; also recorded: inhibit

Compound: O=C(N/N=C/c1ccc(Sc2ccccn2)o1)c1ccncc1 [NCGC00241224]
Effect on Six1/Eya2-mediated transcription from the MEF3-luciferase reporter [2]: does not significantly affect; also recorded: does not significantly inhibit
